Assay results published in patent US20090093424A1, “Markers for melanoma” (University College Dublin, priority 2006, published 2009).

System: FABP5 gene expression in melanoma cell lines (WM793 and derivatives)
Assay: RT-PCR analysis via cycle limitation to assess effect of DAC treatment on FABP5 expression in melanoma cell lines
Assay type: cell-based, human
Description: Total RNA was extracted from untreated (−DAC) and treated (+DAC) cells and subjected to RT-PCR analysis via a cycle limitation method.
RNA extracts were pre-digested with DNase I prior to cDNA synthesis using the DNA-Free kit (Ambion). Single-stranded cDNA was synthesized from 1 μg total RNA using the ImProm-II Reverse Transcription kit (Promega). Recombinant RNasin Ribonuclease Inhibitor (20 U/20 μL reaction; Promega) was added to prevent RNase-mediated degradation. Two negative controls were also utilised, namely minus reverse transcriptase enzyme control and minus template control. Following inactivation of reverse transcriptase (RT) at 70° C. for 15 minutes, aliquots of generated single-stranded cDNA were subjected to polymerase chain reaction (PCR) amplification via a cycle limitation approach.
18 s was used as a control gene whose expression is unaffected by DAC treatment.
Primers used were as follows: […]

Nc1ncn([C@H]2C[C@H](O)[C@@H](CO)O2)c(=O)n1 [DAC, 5-aza-2′-deoxycytidine]
expression of the FABP5 gene after DAC treatment (derivative melanoma cell lines of WM793, treated (+DAC) vs untreated (-DAC), 18s control gene, FIG. 6): increased expression of the FABP5 gene | recovery of FABP5 expression by DAC treatment, aggressive derivative lines compared with parental line (more aggressive melanoma cell lines vs parental WM793, FIG. 6): recovered greater expression in these cells than in the parental melanoma cell line
